# Laboratory results from publication PMC6270996, “Capsaicin: A Potent Inhibitor of Carbonic Anhydrase Isoenzymes” (Molecules, 2014).
# Experiments:
# [1] = target: T1, human carbonic anhydrase II (hCA II) (Homo sapiens, UniProt P00918); test: esterase assay (p-nitrophenyl acetate hydrolysis, […] nm), Lineweaver-Burk; assay type: biochemical
# T1 construct: gene CA2; native enzyme purified from human erythrocytes
# [2] = target: T2, human carbonic anhydrase I (hCA I) (Homo sapiens, UniProt P00915); test: as above; assay type: biochemical
# T2 construct: gene CA1; native enzyme purified from human erythrocytes
# T2 sequence (P00915 2-261): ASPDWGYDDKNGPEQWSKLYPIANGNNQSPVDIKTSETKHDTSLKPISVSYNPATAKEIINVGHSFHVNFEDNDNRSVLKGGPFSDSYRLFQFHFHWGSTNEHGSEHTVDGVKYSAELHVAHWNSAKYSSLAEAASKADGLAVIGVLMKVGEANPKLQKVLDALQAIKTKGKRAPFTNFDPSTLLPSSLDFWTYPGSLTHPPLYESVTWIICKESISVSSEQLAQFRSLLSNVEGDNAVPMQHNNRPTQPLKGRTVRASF
compound,measurement,setting,value
"COc1cc(CNC(=O)CCCC/C=C/C(C)C)ccc1O [capsaicin, trans-8-methyl-N-vanillyl-6-nonenamide]",Ki,[1],208 ± 14.4 µM
same,Ki,[2],696 ± 59.4 µM
